Reference: patent US20240270762A1, “PENICILLIN-BINDING PROTEIN INHIBITORS” (priority 2021, published 2024)
In brackets after ≈: the same amount, converted by molar mass.

Key:
[1] = target: T1, PBP3 from Acinetobacter baumannii (ATCC 19606) (Acinetobacter baumannii, UniProt A0ABX6CK25); assay: Bocillin-FL fluorescence polarization competition binding, A. baumannii PBP3; conditions: fluorescence polarization competition binding assay using Bocillin-FL; read-out: A. baumannii PBP3 Potency
T1 sequence (A0ABX6CK25 64-610): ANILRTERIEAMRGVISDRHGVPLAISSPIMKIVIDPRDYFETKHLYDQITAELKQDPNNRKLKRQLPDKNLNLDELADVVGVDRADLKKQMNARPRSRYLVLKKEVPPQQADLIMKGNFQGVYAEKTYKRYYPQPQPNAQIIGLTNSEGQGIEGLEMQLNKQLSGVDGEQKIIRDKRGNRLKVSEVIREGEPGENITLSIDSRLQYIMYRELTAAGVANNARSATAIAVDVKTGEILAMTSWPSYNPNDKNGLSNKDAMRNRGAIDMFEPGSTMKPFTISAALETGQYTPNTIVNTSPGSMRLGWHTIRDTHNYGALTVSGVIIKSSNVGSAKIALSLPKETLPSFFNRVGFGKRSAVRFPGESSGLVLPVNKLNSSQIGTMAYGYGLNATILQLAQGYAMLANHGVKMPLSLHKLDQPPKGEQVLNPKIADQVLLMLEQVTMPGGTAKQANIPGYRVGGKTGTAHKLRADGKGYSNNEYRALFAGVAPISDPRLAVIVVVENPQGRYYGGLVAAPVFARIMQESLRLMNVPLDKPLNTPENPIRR
Summary of the method: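 Purified PBP was preincubated with inhibitor (E. coli PBP3 1.5 μM, 30 min; P. aeruginosa PBP3 0.75 μM, A. baumannii PBP3 0.2 μM and PBP1a 1 μM, 15 min), then Bocillin-FL (0.1 μM; 0.05 μM for PBP1a) added and FP read up to 60 min. EC50 = 50% loss of bound probe.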

[2] = tested on: P. aeruginosa ATCC 27853; assay: microbe, parasite or virus in culture; format: cell-based; conditions: Pseudomonas aeruginosa, ATCC27853, read-out: Minimum inhibitory concentration, P. aeruginosa ATCC 27853
[3] = tested on: P. aeruginosa CDC-0095; assay: microbe, parasite or virus in culture; format: cell-based; conditions: Pseudomonas aeruginosa, CDC0095, read-out: Minimum inhibitory concentration, P. aeruginosa CDC-0095
[4] = tested on: A. baumannii 1258916; assay: microbe, parasite or virus in culture; format: cell-based, Acinetobacter baumannii; conditions: Acinetobacter baumannii, 1258916, read-out: MIC, A. baumannii 1258916
[5] = tested on: A. baumannii CDC-0033; assay: microbe, parasite or virus in culture; format: cell-based; conditions: Acinetobacter baumannii, CDC0033, read-out: MIC, A. baumannii CDC-0033
[6] = tested on: A. baumannii CDC-0036; assay: microbe, parasite or virus in culture; format: cell-based; conditions: Acinetobacter baumannii, CDC0036, read-out: MIC, A. baumannii CDC-0036
[7] = tested on: B. thailandensis ATCC 700388; assay: microbe, parasite or virus in culture; format: cell-based; conditions: Burkholderia thailandensis, ATCC700388, read-out: Minimum inhibitory concentration (MIC), B. thailandensis ATCC 700388
[8] = tested on: P. aeruginosa CDC-0110; assay: microbe, parasite or virus in culture; format: cell-based; conditions: Pseudomonas aeruginosa, CDC0110, read-out: Minimum inhibitory concentration, P. aeruginosa CDC-0110
[9] = tested on: N. gonorrhoeae MS11; assay: Liquid broth MIC in Fastidious broth; conditions: Neisseria gonorrhoeae, MS11, read-out: Minimum Inhibitory Concentration (MIC), N. gonorrhoeae MS11
[10] = tested on: N. gonorrhoeae WHO G; assay: Liquid broth MIC in Fastidious broth; conditions: Neisseria gonorrhoeae, read-out: Minimum Inhibitory Concentration (MIC), N. gonorrhoeae WHO G
[11] = tested on: N. gonorrhoeae WHO Q; assay: Liquid broth MIC in Fastidious broth; conditions: Neisseria gonorrhoeae, read-out: Minimum Inhibitory Concentration (MIC), N. gonorrhoeae WHO Q

| Structure (SMILES) | IC50 [1] | MIC [2] | MIC [3] | MIC [4] | MIC [5] | MIC [6] | MIC [7] | MIC [8] | MIC [9] | MIC [10] | MIC [11] |
| --- | --- | --- | --- | --- | --- | --- | --- | --- | --- | --- | --- |
| O=C(NCCN1CCN(C(=O)NC(C(=O)N[C@H]2Cc3ccc(F)c(C(=O)O)c3OB2O)c2cc(F)c(O)c(O)c2Cl)C(=O)C1=O)c1ccc(O)cc1 (stereo partly drawn) [Example 214, (3R)-3-(2-(2-chloro-5-fluoro-3,4-dihydroxyphenyl)-2-(4-(2-(4-hydroxybenzamido)ethyl)-2,3-dioxopiperazine-1-carboxamido)acetamido)-7-fluoro-2-hydroxy-3,4-dihydro-2H-benzo[e][1,2]oxaborinine-8-carboxylic acid] | < 10 µM | 2 to 4 µg/mL (≈ 2.68 to 5.36 µM) | 2 to 4 µg/mL (≈ 2.68 to 5.36 µM) | 2 to 4 µg/mL (≈ 2.68 to 5.36 µM) | 8 to 16 µg/mL (≈ 10.7 to 21.5 µM) | 8 to 16 µg/mL (≈ 10.7 to 21.5 µM) | 8 to 16 µg/mL (≈ 10.7 to 21.5 µM) | < 1 µg/mL | 16 to 32 µg/mL (≈ 21.5 to 42.9 µM) | 4 to 8 µg/mL (≈ 5.36 to 10.7 µM) | > 64 µg/mL |
| O=C(NCCN1CCN(C(=O)NC(C(=O)N[C@H]2Cc3ccc(F)c(C(=O)O)c3OB2O)c2cc(F)c(O)c(O)c2Cl)C(=O)C1=O)c1cccc(O)c1 (stereo partly drawn) [Example 215, (3R)-3-(2-(2-chloro-5-fluoro-3,4-dihydroxyphenyl)-2-(4-(2-(3-hydroxybenzamido)ethyl)-2,3-dioxopiperazine-1-carboxamido)acetamido)-7-fluoro-2-hydroxy-3,4-dihydro-2H-benzo[e][1,2]oxaborinine-8-carboxylic acid] | < 10 µM | 2 to 4 µg/mL (≈ 2.68 to 5.36 µM) | 2 to 4 µg/mL (≈ 2.68 to 5.36 µM) | 2 to 4 µg/mL (≈ 2.68 to 5.36 µM) | 8 to 16 µg/mL (≈ 10.7 to 21.5 µM) | 8 to 16 µg/mL (≈ 10.7 to 21.5 µM) | 8 to 16 µg/mL (≈ 10.7 to 21.5 µM) | < 1 µg/mL | 16 to 32 µg/mL (≈ 21.5 to 42.9 µM) | 4 to 8 µg/mL (≈ 5.36 to 10.7 µM) | > 64 µg/mL |
| O=C(NCCN1CCN(C(=O)NC(C(=O)N[C@H]2Cc3ccc(F)c(C(=O)O)c3OB2O)c2cc(F)c(O)c(O)c2Cl)C(=O)C1=O)c1ccncc1 (stereo partly drawn) [Example 216, (3R)-3-(2-(2-chloro-5-fluoro-3,4-dihydroxyphenyl)-2-(4-(2-(isonicotinamido)ethyl)-2,3-dioxopiperazine-1-carboxamido)acetamido)-7-fluoro-2-hydroxy-3,4-dihydro-2H-benzo[e][1,2]oxaborinine-8-carboxylic acid] | < 10 µM | 2 to 4 µg/mL (≈ 2.74 to 5.47 µM) | 8 to 16 µg/mL (≈ 10.9 to 21.9 µM) | 2 to 4 µg/mL (≈ 2.74 to 5.47 µM) | 8 to 16 µg/mL (≈ 10.9 to 21.9 µM) | 8 to 16 µg/mL (≈ 10.9 to 21.9 µM) | 2 to 4 µg/mL (≈ 2.74 to 5.47 µM) | < 1 µg/mL | 16 to 32 µg/mL (≈ 21.9 to 43.8 µM) | 4 to 8 µg/mL (≈ 5.47 to 10.9 µM) | 16 to 32 µg/mL (≈ 21.9 to 43.8 µM) |
| O=C(NCCN1CCN(C(=O)NC(C(=O)N[C@H]2Cc3ccc(F)c(C(=O)O)c3OB2O)c2cc(F)c(O)c(O)c2Cl)C(=O)C1=O)c1cccnc1 (stereo partly drawn) [Example 217, (3R)-3-(2-(2-chloro-5-fluoro-3,4-dihydroxyphenyl)-2-(4-(2-(nicotinamido)ethyl)-2,3-dioxopiperazine-1-carboxamido)acetamido)-7-fluoro-2-hydroxy-3,4-dihydro-2H-benzo[e][1,2]oxaborinine-8-carboxylic acid] | < 10 µM | 2 to 4 µg/mL (≈ 2.74 to 5.47 µM) | 2 to 4 µg/mL (≈ 2.74 to 5.47 µM) | 2 to 4 µg/mL (≈ 2.74 to 5.47 µM) | 8 to 16 µg/mL (≈ 10.9 to 21.9 µM) | 8 to 16 µg/mL (≈ 10.9 to 21.9 µM) | 2 to 4 µg/mL (≈ 2.74 to 5.47 µM) | < 1 µg/mL | 16 to 32 µg/mL (≈ 21.9 to 43.8 µM) | 16 to 32 µg/mL (≈ 21.9 to 43.8 µM) | > 64 µg/mL |
| O=C(NCCN1CCN(C(=O)NC(C(=O)N[C@H]2Cc3ccc(F)c(C(=O)O)c3OB2O)c2cc(F)c(O)c(O)c2Cl)C(=O)C1=O)c1nccs1 (stereo partly drawn) [Example 218, (3R)-3-(2-(2-chloro-5-fluoro-3,4-dihydroxyphenyl)-2-(2,3-dioxo-4-(2-(thiazole-2-carboxamido)ethyl)piperazine-1-carboxamido)acetamido)-7-fluoro-2-hydroxy-3,4-dihydro-2H-benzo[e][1,2]oxaborinine-8-carboxylic acid] | < 10 µM | 2 to 4 µg/mL (≈ 2.71 to 5.43 µM) | 8 to 16 µg/mL (≈ 10.9 to 21.7 µM) | 2 to 4 µg/mL (≈ 2.71 to 5.43 µM) | 8 to 16 µg/mL (≈ 10.9 to 21.7 µM) | 8 to 16 µg/mL (≈ 10.9 to 21.7 µM) | 2 to 4 µg/mL (≈ 2.71 to 5.43 µM) | 2 to 4 µg/mL (≈ 2.71 to 5.43 µM) | 16 to 32 µg/mL (≈ 21.7 to 43.4 µM) | 16 to 32 µg/mL (≈ 21.7 to 43.4 µM) | > 64 µg/mL |
| O=C(NCCN1CCN(C(=O)NC(C(=O)N[C@H]2Cc3ccc(F)c(C(=O)O)c3OB2O)c2cc(F)c(O)c(O)c2Cl)C(=O)C1=O)Nc1ccc(O)cc1 (stereo partly drawn) [Example 219, (3R)-3-(2-(2-chloro-5-fluoro-3,4-dihydroxyphenyl)-2-(4-(2-(3-(4-hydroxyphenyl)ureido)ethyl)-2,3-dioxopiperazine-1-carboxamido)acetamido)-7-fluoro-2-hydroxy-3,4-dihydro-2H-benzo[e][1,2]oxaborinine-8-carboxylic acid] | < 10 µM | 2 to 4 µg/mL (≈ 2.63 to 5.26 µM) | 8 to 16 µg/mL (≈ 10.5 to 21 µM) | 2 to 4 µg/mL (≈ 2.63 to 5.26 µM) | 8 to 16 µg/mL (≈ 10.5 to 21 µM) | 8 to 16 µg/mL (≈ 10.5 to 21 µM) | 8 to 16 µg/mL (≈ 10.5 to 21 µM) | < 1 µg/mL | 16 to 32 µg/mL (≈ 21 to 42.1 µM) | 16 to 32 µg/mL (≈ 21 to 42.1 µM) | > 64 µg/mL |
| O=C(NCCN1CCN(C(=O)NC(C(=O)N[C@H]2Cc3ccc(F)c(C(=O)O)c3OB2O)c2cc(F)c(O)c(O)c2Cl)C(=O)C1=O)Nc1cccc(O)c1 (stereo partly drawn) [Example 220, (3R)-3-(2-(2-chloro-5-fluoro-3,4-dihydroxyphenyl)-2-(4-(2-(3-(3-hydroxyphenyl)ureido)ethyl)-2,3-dioxopiperazine-1-carboxamido)acetamido)-7-fluoro-2-hydroxy-3,4-dihydro-2H-benzo[e][1,2]oxaborinine-8-carboxylic acid] | < 10 µM | 2 to 4 µg/mL (≈ 2.63 to 5.26 µM) | 8 to 16 µg/mL (≈ 10.5 to 21 µM) | 2 to 4 µg/mL (≈ 2.63 to 5.26 µM) | 2 to 4 µg/mL (≈ 2.63 to 5.26 µM) | 8 to 16 µg/mL (≈ 10.5 to 21 µM) | 8 to 16 µg/mL (≈ 10.5 to 21 µM) | < 1 µg/mL | 16 to 32 µg/mL (≈ 21 to 42.1 µM) | 4 to 8 µg/mL (≈ 5.26 to 10.5 µM) | > 64 µg/mL |
| O=C(NCCN1CCN(C(=O)N[C@@H](C(=O)N[C@H]2Cc3ccc(F)c(C(=O)O)c3OB2O)c2cc(F)c(O)c(O)c2Cl)C(=O)C1=O)Nc1ccncc1 [Example 221, (R)-3-((R)-2-(2-chloro-5-fluoro-3,4-dihydroxyphenyl)-2-(2,3-dioxo-4-(2-(3-(pyridin-4-yl)ureido)ethyl)piperazine-1-carboxamido)acetamido)-7-fluoro-2-hydroxy-3,4-dihydro-2H-benzo[e][1,2]oxaborinine-8-carboxylic acid] | < 10 µM | < 1 µg/mL | 8 to 16 µg/mL (≈ 10.7 to 21.5 µM) | 2 to 4 µg/mL (≈ 2.68 to 5.36 µM) | 2 to 4 µg/mL (≈ 2.68 to 5.36 µM) | 2 to 4 µg/mL (≈ 2.68 to 5.36 µM) | 2 to 4 µg/mL (≈ 2.68 to 5.36 µM) | < 1 µg/mL | 16 to 32 µg/mL (≈ 21.5 to 42.9 µM) | 4 to 8 µg/mL (≈ 5.36 to 10.7 µM) | > 64 µg/mL |
